Laboratory results published in patent publication US9675073B2, “Insecticidal compounds based on N-arylsulfanylmethylcarboxamidearylthiosulfonamides derivatives” (Syngenta Participations AG, priority 2012, dated 2017).
Like-named read-outs stand apart in the source and are kept apart here.

Experiments:
Format in all cases: in vivo
[1] = system: Spodoptera littoralis (Egyptian Cotton Leaf Worm); assay: Spodoptera littoralis cotton leaf disc spray test, L1 larvae; details: foliar, 72 h
Procedure: Spodoptera littoralis (Egyptian Cotton Leaf Worm)
Cotton leaf discs were placed on agar in 24-well microtiter plates and sprayed with aqueous test solutions prepared from 10,000 ppm DMSO stock solutions. After drying the leaf discs were infested with five L1 larvae. The samples were assessed for mortality 3 days after infestation.

[2] = system: Myzus persicae (Green Peach Aphid); assay: Myzus persicae sucrose solution feeding test through Parafilm; details: 120 h, test rate 12 ppm, 5 days after infestation
Procedure: Myzus persicae (Green Peach Aphid)
Test compounds from 10,000 ppm DMSO stock solutions were applied by pipette into 24-well microtiter plates and mixed with sucrose solution. The plates were closed with a stretched Parafilm. A plastic stencil with 24 holes was placed onto the plate and infested pea seedlings were placed directly on the Parafilm. The infested plate was closed with a gel blotting paper and another plastic stencil and then turned upside down. The samples were assessed for mortality 5 days after infestation.

[3] = system: Diabrotica balteata (Corn Root Worm); assay: Diabrotica balteata L2 larvae on treated artificial diet; details: 120 h, application rate 200 ppm, 5 days after infestation
Procedure: 24-well microtiter plates with artificial diet were treated with aqueous test solutions prepared from 10,000 ppm DMSO stock solutions by pipetting. After drying, the plates were infested with L2 larvae (6 to 10 per well). The samples were assessed for mortality 5 days after infestation.

[4] = system: Thrips tabaci (Onion Thrips); assay: Thrips tabaci sunflower leaf disc spray test; details: foliar, 144 h, application rate 200 ppm, mixed ages on sunflower leaf discs, 6 days after infestation
Procedure: Thrips tabaci (Onion Thrips):
Sunflower leaf discs were placed on agar in 24-well microtiter plates and sprayed with aqueous test solutions prepared from 10,000 ppm DMSO stock solutions. After drying the leaf discs were infested with a thrips population of mixed ages. The samples were assessed for mortality 6 days after infestation.

[5] = system: Tetranychus urticae (Two-Spotted Spider Mite); assay: Tetranychus urticae bean leaf disc spray test; details: foliar, 192 h, application rate 200 ppm, mixed population (mobile stages) on bean leaf discs, 8 days after infestation
Procedure: Tetranychus urticae (Two-Spotted Spider Mite):
Bean leaf discs on agar in 24-well microtiter plates were sprayed with aqueous test solutions prepared from 10,000 ppm DMSO stock solutions. After drying the leaf discs were infested with a mite population of mixed ages. The samples were assessed for mortality on mixed population (mobile stages) 8 days after infestation.

[6] = system: Heliothis virescens (Tobacco Budworm); assay: Heliothis virescens eggs on artificial diet; details: 120 h, read-out: egg or larval mortality
Procedure: Heliothis virescens (Tobacco Budworm):
Eggs (0-24 h old) were placed in 24-well microtiter plates on artificial diet and treated with aqueous test solutions prepared from 10,000 ppm DMSO stock solutions by pipetting. The samples were assessed for egg and larval mortality 5 days after infestation.

[7] = system: Plutella xylostella (Diamond Back Moth); assay: Plutella xylostella L2 larvae on treated artificial diet; details: 120 h
Procedure: 24-well microtiter plates with artificial diet were treated with aqueous test solutions prepared from 10,000 ppm DMSO stock solutions by pipetting. After drying, the plates were infested with L2 larvae (10 to 15 per well). The samples were assessed for mortality 5 days after infestation.

[8] = system: Diabrotica balteata, (Corn Root Worm); assay: Diabrotica balteata L2 larvae on sprayed maize sprouts; details: 96 h, application rate 200 ppm, 4 days after infestation
Procedure: Maize sprouts, placed on an agar layer in 24-well microtiter plates were treated with aqueous test solutions prepared from 10,000 ppm DMSO stock solutions by spraying. After drying, the plates were infested with L2 larvae (6 to 10 per well). The samples were assessed for mortality 4 days after infestation.

[9] = application rate 200 ppm, eggs on artificial diet, 5 days after infestation

CC(=O)NCSc1ccc(C2=NOC(c3cc(Cl)cc(Cl)c3)(C(F)(F)F)C2)cc1Br (stereo not shown) [Compound A1, N-[[2-bromo-4-[5-(3,5-dichlorophenyl)-5-(trifluoromethyl)-4H-isoxazol-3-yl]phenyl]sulfanylmethyl]acetamide]
≥ 80%: mortality at 200 ppm [1] | mortality at 12 ppm [2] | mortality at 200 ppm [3] | mortality at 200 ppm [4] | mortality at 200 ppm [5] | mortality at 200 ppm [6] | mortality at 200 ppm [7]

O=C(NCSc1ccc(C2=NOC(c3cc(Cl)cc(Cl)c3)(C(F)(F)F)C2)cc1Br)c1ccccc1 (stereo not shown) [Compound A2, N-[[2-bromo-4-[5-(3,5-dichlorophenyl)-5-(trifluoromethyl)-4H-isoxazol-3-yl]phenyl]sulfanylmethyl]benzamide]
≥ 80%: mortality at 200 ppm [6] | mortality at 200 ppm [7]

O=C(NCSc1ccc(C2=NOC(c3cc(Cl)cc(Cl)c3)(C(F)(F)F)C2)cc1Br)C1CC1 (stereo not shown) [Compound A3, N-[[2-bromo-4-[5-(3,5-dichlorophenyl)-5-(trifluoromethyl)-4H-isoxazol-3-yl]phenyl]sulfanylmethyl]cyclopropanecarboxamide]
≥ 80%: mortality at 200 ppm [1] | mortality at 12 ppm [2] | mortality at 200 ppm [3] | mortality at 200 ppm [4] | mortality at 200 ppm [5] | mortality at 200 ppm [6] | mortality at 200 ppm [7]

CC1(C(=O)NCSc2ccc(C3=NOC(c4cc(Cl)cc(Cl)c4)(C(F)(F)F)C3)cc2Br)CC1 (stereo not shown) [Compound A4, N-[[2-bromo-4-[5-(3,5-dichlorophenyl)-5-(trifluoromethyl)-4H-isoxazol-3-yl]phenyl]sulfanylmethyl]-1-methyl-cyclopropanecarboxamide]
≥ 80%: mortality at 200 ppm [6]

CC(=O)NCSc1ccc(C2=CSC(c3cc(Cl)cc(Cl)c3)(C(F)(F)F)C2)cc1Br (stereo not shown) [Compound C1, N-[[2-bromo-4-[2-(3,5-dichlorophenyl)-2-(trifluoromethyl)-3H-thiophen-4-yl]phenyl]sulfanylmethyl]acetamide]
≥ 80%: mortality at 200 ppm ([1]; application rate 200 ppm, L1 larvae on cotton leaf discs, 3 days after infestation, read-out: mortality) | mortality at 200 ppm [8] | mortality at 200 ppm [6, 9] | mortality at 200 ppm ([7]; application rate 200 ppm, L2 larvae on artificial diet, 5 days after infestation, read-out: mortality)

CC(C)C(=O)NCSc1ccc(C2=CSC(c3cc(Cl)cc(Cl)c3)(C(F)(F)F)C2)cc1Br (stereo not shown) [Compound C2, N-[[2-bromo-4-[2-(3,5-dichlorophenyl)-2-(trifluoromethyl)-3H-thiophen-4-yl]phenyl]sulfanylmethyl]-2-methyl-propanamide]
≥ 80%: mortality at 200 ppm [6, 9]
